The source made the active and inactive calls. No cut-off for these calls is given here.
Tests used:
[1] = biological target: Adenosine receptor A2a (Homo sapiens) (UniProt P29274); experiment: Inhibition of human Adenosine receptor A2a at 10 uM relative to control
[2] = biological target: Histamine H1 receptor (Homo sapiens) (UniProt P35367); experiment: Inhibition of human histamine H1 receptor expressed in stable HEK cells at 10 uM relative to control; type: cell-based
[3] = biological target: Muscarinic acetylcholine receptor M3 (Homo sapiens) (UniProt P20309); experiment: Inhibition of human Muscarinic acetylcholine receptor M3 expressed in stable Cricetulus griseus CHO cells at 10 uM relative to control; type: cell-based
Muscarinic acetylcholine receptor M3 (Homo sapiens), sequence (P20309 whole entry, looked up): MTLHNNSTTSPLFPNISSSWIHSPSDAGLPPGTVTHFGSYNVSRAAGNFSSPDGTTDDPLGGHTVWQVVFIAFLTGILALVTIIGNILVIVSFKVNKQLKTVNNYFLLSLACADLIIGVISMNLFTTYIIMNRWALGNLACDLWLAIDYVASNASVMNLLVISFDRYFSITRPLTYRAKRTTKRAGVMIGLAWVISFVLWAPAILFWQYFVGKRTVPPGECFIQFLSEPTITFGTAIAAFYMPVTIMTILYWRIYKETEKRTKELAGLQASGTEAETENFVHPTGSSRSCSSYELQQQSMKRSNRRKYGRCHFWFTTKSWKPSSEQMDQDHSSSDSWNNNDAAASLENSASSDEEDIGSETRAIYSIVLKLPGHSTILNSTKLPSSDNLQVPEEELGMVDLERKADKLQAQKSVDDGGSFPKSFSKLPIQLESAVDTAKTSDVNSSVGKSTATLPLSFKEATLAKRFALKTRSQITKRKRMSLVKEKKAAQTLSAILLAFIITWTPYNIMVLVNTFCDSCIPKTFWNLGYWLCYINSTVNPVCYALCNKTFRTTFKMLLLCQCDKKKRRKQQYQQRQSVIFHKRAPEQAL

[4] = biological target: 5-hydroxytryptamine receptor 5A (Homo sapiens) (UniProt P47898); experiment: Inhibition of human HTR5A expressed in Cricetulus griseus Flp-In-CHO cells at 10 uM relative to control; type: cell-based
[5] = biological target: Melatonin receptor type 1A (Homo sapiens) (UniProt P48039); experiment: Inhibition of human Melatonin receptor type 1A at 10 uM relative to control
[6] = biological target: Muscarinic acetylcholine receptor M3 (Homo sapiens) (UniProt P20309); experiment: Inhibition of human Muscarinic 3 at 10 uM relative to control
[7] = biological target: 5-hydroxytryptamine receptor 2B (Homo sapiens) (UniProt P41595); experiment: Inhibition of human 5-HT2B receptor expressed in stable HEK cells at 10 uM relative to control; type: cell-based
5-hydroxytryptamine receptor 2B (Homo sapiens), sequence (P41595 whole entry): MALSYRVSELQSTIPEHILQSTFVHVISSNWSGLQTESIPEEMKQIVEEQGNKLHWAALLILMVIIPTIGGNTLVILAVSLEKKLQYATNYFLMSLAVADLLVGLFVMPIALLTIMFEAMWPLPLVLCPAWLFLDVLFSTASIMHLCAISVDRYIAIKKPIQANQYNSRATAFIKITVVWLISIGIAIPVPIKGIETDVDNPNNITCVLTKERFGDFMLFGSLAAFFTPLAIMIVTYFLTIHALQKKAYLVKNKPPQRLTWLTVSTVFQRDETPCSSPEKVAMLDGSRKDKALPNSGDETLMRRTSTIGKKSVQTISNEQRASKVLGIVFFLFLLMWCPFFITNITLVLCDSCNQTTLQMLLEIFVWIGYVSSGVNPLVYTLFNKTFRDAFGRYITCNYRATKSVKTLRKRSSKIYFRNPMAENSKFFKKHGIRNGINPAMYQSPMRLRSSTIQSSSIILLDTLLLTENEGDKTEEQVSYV

[8] = biological target: Cholecystokinin receptor type A (Homo sapiens) (UniProt P32238); experiment: Inhibition of human CCK1 at 10 uM relative to control
Cholecystokinin receptor type A (Homo sapiens), sequence (P32238 whole entry): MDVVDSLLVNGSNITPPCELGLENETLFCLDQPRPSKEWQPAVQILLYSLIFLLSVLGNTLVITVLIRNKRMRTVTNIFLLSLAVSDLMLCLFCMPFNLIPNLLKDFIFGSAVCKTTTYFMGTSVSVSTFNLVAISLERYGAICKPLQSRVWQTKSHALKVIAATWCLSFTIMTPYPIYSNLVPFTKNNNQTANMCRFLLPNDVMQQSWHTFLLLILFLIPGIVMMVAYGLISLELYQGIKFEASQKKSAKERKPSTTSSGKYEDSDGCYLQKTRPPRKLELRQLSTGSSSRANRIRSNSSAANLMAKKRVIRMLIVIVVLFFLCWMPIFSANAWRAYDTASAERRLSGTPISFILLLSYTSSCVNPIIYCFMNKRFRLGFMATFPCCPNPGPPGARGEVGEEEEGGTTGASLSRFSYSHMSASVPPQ

[9] = biological target: T1, 5-hydroxytryptamine receptor 1A (Homo sapiens) (UniProt P08908); experiment: Inhibition of human 5-HT1A at 10 uM relative to control
T1 sequence (whole entry): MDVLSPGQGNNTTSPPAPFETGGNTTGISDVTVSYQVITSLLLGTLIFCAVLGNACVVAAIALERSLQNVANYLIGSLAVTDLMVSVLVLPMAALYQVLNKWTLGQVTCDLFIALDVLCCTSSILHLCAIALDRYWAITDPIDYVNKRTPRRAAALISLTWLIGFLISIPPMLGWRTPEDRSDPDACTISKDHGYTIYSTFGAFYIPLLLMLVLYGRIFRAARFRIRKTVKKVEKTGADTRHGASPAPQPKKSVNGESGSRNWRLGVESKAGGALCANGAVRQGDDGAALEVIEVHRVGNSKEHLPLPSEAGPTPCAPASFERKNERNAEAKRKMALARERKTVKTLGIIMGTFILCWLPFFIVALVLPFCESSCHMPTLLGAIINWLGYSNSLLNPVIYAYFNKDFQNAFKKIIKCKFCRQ

Homo sapiens [10] = species: Homo sapiens; experiment: Inhibition of human GABA-gated Cl- channel at 10 uM relative to control
[11] = biological target: 5-hydroxytryptamine receptor 2C (Homo sapiens) (UniProt P28335); experiment: Inhibition of human 5-HT2C receptor expressed in HEK293T cells at 10 uM relative to control; type: cell-based
[12] = biological target: Substance-K receptor (Homo sapiens) (UniProt P21452); experiment: Inhibition of human Substance-K receptor at 10 uM relative to control
[13] = biological target: Muscarinic acetylcholine receptor M4 (Homo sapiens) (UniProt P08173); experiment: Inhibition of human Muscarinic acetylcholine receptor M4 expressed in stable Cricetulus griseus CHO cells at 10 uM relative to control; type: cell-based
Muscarinic acetylcholine receptor M4 (Homo sapiens), sequence (P08173 whole entry): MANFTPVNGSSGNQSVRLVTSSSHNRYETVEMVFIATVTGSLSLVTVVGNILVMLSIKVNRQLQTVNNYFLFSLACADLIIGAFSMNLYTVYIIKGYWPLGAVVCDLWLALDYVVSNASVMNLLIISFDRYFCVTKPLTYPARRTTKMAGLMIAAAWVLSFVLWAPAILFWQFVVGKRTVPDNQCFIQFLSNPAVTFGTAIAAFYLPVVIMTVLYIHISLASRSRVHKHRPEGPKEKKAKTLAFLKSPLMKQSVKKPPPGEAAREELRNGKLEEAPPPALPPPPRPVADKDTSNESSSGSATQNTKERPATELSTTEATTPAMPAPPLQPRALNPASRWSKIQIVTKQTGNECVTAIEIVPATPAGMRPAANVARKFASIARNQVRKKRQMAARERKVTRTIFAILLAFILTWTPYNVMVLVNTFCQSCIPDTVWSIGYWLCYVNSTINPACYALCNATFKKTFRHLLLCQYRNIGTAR

[14] = biological target: Beta-2 adrenergic receptor (Homo sapiens) (UniProt P07550); experiment: Inhibition of human Beta-2 adrenergic receptor at 10 uM relative to control
Beta-2 adrenergic receptor (Homo sapiens), sequence (P07550 whole entry, looked up): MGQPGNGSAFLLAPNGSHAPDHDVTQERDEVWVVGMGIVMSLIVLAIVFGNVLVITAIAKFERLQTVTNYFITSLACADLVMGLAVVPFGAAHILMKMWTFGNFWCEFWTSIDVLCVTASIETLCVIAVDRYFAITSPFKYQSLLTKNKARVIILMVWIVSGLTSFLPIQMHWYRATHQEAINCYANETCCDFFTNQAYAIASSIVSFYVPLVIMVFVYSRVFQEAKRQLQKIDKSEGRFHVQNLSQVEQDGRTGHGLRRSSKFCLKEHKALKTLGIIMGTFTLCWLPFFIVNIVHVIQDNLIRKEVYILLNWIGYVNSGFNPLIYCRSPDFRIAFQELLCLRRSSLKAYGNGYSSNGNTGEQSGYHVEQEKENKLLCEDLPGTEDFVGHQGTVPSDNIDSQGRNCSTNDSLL

[15] = biological target: Type-1 angiotensin II receptor (Homo sapiens) (UniProt P30556); experiment: Inhibition of human AT1 at 10 uM relative to control
[16] = biological target: Sodium-dependent serotonin transporter (Homo sapiens) (UniProt P31645); experiment: Inhibition of human 5-HT transporter at 10 uM relative to control
Sodium-dependent serotonin transporter (Homo sapiens), sequence (P31645 whole entry, looked up): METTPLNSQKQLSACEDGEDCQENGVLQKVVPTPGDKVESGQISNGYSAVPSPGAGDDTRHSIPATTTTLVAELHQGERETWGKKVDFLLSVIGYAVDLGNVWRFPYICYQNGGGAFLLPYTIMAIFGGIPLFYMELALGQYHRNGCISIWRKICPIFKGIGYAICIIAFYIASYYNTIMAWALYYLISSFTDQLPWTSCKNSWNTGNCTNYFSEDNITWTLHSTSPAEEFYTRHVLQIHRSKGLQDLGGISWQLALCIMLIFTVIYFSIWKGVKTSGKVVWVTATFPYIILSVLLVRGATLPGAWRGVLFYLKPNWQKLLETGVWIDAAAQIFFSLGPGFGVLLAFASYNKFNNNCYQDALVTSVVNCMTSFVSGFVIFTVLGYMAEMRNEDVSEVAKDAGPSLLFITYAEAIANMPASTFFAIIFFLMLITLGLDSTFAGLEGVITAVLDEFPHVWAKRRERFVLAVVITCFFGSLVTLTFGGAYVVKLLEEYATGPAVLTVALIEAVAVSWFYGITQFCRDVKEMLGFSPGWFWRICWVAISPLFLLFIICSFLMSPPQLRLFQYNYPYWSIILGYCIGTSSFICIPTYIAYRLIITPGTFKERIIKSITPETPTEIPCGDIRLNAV

[17] = biological target: B2 bradykinin receptor (Homo sapiens) (UniProt P30411); experiment: Inhibition of human BK-2 receptor at 10 uM relative to control
B2 bradykinin receptor (Homo sapiens), sequence (P30411 whole entry): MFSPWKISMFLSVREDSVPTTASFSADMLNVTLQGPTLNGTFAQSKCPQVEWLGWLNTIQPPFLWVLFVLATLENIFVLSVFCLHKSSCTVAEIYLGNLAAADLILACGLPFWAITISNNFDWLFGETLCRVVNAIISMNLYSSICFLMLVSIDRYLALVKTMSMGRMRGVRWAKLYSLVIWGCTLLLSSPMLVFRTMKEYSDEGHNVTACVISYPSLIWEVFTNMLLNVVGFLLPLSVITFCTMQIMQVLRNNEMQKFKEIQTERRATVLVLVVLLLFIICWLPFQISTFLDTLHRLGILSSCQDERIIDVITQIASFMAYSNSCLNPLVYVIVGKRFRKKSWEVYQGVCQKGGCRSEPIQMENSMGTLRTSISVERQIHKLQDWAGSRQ

Homo sapiens [18] = species: Homo sapiens; experiment: Inhibition of human Sodium channel site 2 at 10 uM relative to control
[19] = biological target: Beta-1 adrenergic receptor (Homo sapiens) (UniProt P08588); experiment: Inhibition of human Beta-1 adrenoceptor at 10 uM relative to control
Beta-1 adrenergic receptor (Homo sapiens), sequence (P08588 whole entry, looked up): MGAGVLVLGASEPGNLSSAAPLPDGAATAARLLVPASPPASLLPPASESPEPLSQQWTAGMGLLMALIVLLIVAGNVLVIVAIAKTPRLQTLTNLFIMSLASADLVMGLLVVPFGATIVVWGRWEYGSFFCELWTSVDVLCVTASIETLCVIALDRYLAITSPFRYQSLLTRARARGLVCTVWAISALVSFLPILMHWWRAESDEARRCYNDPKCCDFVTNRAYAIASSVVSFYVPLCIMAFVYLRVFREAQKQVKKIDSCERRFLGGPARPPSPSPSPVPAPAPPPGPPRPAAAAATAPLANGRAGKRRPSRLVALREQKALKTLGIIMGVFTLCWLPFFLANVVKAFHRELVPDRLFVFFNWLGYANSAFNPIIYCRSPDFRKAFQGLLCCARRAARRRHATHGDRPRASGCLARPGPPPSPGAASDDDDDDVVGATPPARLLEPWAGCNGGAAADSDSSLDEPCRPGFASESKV

[20] = biological target: Mu-type opioid receptor (Homo sapiens) (UniProt P35372); experiment: Inhibition of human Mu-type opioid receptor expressed in stable HEK cells at 10 uM relative to control; type: cell-based
Mu-type opioid receptor (Homo sapiens), sequence (P35372 whole entry): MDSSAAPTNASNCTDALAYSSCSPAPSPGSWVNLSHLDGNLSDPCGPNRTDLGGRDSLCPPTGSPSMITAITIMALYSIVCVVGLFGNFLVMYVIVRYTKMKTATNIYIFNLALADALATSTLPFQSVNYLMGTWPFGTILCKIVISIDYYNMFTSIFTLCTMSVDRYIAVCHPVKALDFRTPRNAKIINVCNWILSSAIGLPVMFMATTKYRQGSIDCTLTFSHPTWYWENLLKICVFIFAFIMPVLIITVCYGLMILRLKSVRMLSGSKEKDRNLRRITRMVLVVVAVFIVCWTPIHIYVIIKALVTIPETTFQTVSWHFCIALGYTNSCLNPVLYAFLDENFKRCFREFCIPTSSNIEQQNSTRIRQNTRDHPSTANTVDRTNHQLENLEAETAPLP

[21] = biological target: T2, Muscarinic acetylcholine receptor M2 (Homo sapiens) (UniProt P08172); experiment: Inhibition of human Muscarinic acetylcholine receptor M2 expressed in stable Cricetulus griseus CHO cells at 10 uM relative to control; type: cell-based
T2 sequence (whole entry): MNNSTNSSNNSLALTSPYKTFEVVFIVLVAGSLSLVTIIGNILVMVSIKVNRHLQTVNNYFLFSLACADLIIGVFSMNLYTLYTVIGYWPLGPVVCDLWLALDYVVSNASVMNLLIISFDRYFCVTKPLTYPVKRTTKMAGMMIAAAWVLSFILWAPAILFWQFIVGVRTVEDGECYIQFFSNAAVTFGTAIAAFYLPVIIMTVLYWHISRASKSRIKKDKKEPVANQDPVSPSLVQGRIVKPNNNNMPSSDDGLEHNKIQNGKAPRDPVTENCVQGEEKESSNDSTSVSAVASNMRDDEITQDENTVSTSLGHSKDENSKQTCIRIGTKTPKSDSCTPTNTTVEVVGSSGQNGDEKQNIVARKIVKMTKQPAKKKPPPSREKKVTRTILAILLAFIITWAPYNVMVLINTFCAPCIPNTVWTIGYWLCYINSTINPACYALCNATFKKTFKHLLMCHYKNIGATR

[22] = biological target: 5-hydroxytryptamine receptor 7 (Homo sapiens) (UniProt P34969); experiment: Inhibition of human 5-HT7 at 10 uM relative to control
Embryonic stem cell = experiment: Antiproliferative activity against mouse Embryonic stem cell assessed as […] in H4K20me3 at 10 uM incubated for 3 days by immunofluorescence analysis; type: functional, cell-based; conditions: time 3.0 day
[23] = biological target: 5-hydroxytryptamine receptor 2A (Homo sapiens) (UniProt P28223); experiment: Inhibition of human 5-HT2A receptor expressed in HEK293T cells at 10 uM relative to control; type: cell-based
5-hydroxytryptamine receptor 2A (Homo sapiens), sequence (P28223 whole entry): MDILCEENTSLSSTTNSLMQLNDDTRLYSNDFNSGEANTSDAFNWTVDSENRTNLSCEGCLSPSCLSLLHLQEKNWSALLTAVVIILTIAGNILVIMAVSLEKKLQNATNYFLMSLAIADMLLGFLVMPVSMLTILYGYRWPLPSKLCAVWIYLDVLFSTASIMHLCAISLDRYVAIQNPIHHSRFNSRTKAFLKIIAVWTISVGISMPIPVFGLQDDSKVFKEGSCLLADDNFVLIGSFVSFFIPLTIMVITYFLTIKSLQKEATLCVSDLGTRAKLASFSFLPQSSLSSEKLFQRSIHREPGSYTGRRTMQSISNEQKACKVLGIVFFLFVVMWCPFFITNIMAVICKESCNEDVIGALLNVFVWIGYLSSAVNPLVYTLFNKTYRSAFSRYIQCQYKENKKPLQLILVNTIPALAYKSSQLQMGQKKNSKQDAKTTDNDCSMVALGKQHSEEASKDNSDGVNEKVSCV

[24] = biological target: Neuromedin-K receptor (Homo sapiens) (UniProt P29371); experiment: Inhibition of human Neuromedin-K receptor at 10 uM relative to control
B-cell = experiment: Induction of DNA repair in mouse B cells assessed as inhibition in H4K20me2 level at 1 to 10 uM incubated for 96 hrs by western blot analysis; type: functional, cell-based; conditions: dose 1-10 µM

inhibition [1] [%] | inhibition [2] [%] | inhibition [3] [%] | inhibition [4] [%] | inhibition [5] [%] | inhibition [6] [%] | inhibition [7] [%] | inhibition [8] [%] | inhibition [9] [%] | inhibition (Homo sapiens [10]) [%] | inhibition [11] [%] | inhibition [12] [%] | inhibition [13] [%] | inhibition [14] [%] | inhibition [15] [%] | inhibition [16] [%] | inhibition [17] [%] | inhibition (Homo sapiens [18]) [%] | inhibition [19] [%] | inhibition [20] [%] | Compound | also measured
22 | 2 | -3 | -1 | 17 | 18 | 4 | 7 | -1 | 17 | 13 | 53 | -7 | 10 | -7 | -7 | -4 | -5 | 11 | 22 | O=C(c1nnc(NC2CCCC2)c2cc(Cl)c(Cl)cc12)N1CCC(O)CC1 | inhibition [21]: -5%; inhibition [22]: -3%; Activity (Embryonic stem cell): inactive; inhibition [23]: 81%; inhibition [24]: 11%; inhibition (B-cell): inactive
98 | 17 | -8 | 5 | 34 | 11 | 16 | -2 | 5 | 90 | 8 | 61 | -3 | 9 | 10 | 5 | 1 | 17 | 3 | 11 | Clc1cc2c(NC3CCCC3)nnc(-c3ccncc3)c2cc1Cl | inhibition [21]: -1%; inhibition [22]: 6%; Activity (Embryonic stem cell): Active; inhibition [23]: 39%; inhibition [24]: 26%; inhibition (B-cell): Active

Reference: ChEMBL document CHEMBL5649167, “The SUV4-20 inhibitor A-196 verifies a role for epigenetics in genomic integrity” (Nat Chem Biol, 2017)
